Test results from the NIST ThermoML archive (doi:10.1021/je060210c).

What was measured:
[1] = xn = mol fraction of the nth substance listed; details: 101 kPa, Liquid; for speed of sound: Sing-around technique in a fixed-path interferometer
[2] = excess molar enthalpy (molar enthalpy of mixing); xn = mol fraction of the nth substance listed; details: 101 kPa, Liquid

C=C1CCC2CC1C2(C)C (stereo not drawn) [β-pinene] + CCCCCO
Details	excess molar enthalpy [kJ/mol]	mass density [kg/m3]	speed of sound [m/s]
[1], 283.15 K, x1 = 0.1075	–	830.13	1327.7
[1], 283.15 K, x1 = 0.2016	–	836.79	1328.9
[1], 283.15 K, x1 = 0.3016	–	843.32	1330.6
[1], 283.15 K, x1 = 0.4028	–	849.41	1331.6
[1], 283.15 K, x1 = 0.5026	–	854.98	1333.2
[1], 283.15 K, x1 = 0.6034	–	860.24	1335.1
[1], 283.15 K, x1 = 0.7014	–	865.12	1337.8
[1], 283.15 K, x1 = 0.8036	–	869.97	1341.4
[1], 283.15 K, x1 = 0.9009	–	874.43	1346.2
[1], 283.15 K, x1 = 0.9481	–	876.59	1349.3
[1], 298.15 K, x1 = 0.1004	–	–	1275
[1], 298.15 K, x1 = 0.1057	–	819.15	–
[1], 298.15 K, x1 = 0.2012	–	825.47	–
[1], 298.15 K, x1 = 0.2024	–	–	1275.5
[1], 298.15 K, x1 = 0.3032	–	831.91	–
[1], 298.15 K, x1 = 0.3081	–	–	1275.8
[1], 298.15 K, x1 = 0.3975	–	–	1275.9
[1], 298.15 K, x1 = 0.4023	–	837.67	–
[1], 298.15 K, x1 = 0.4982	–	–	1276.4
[1], 298.15 K, x1 = 0.4984	–	842.91	–
[1], 298.15 K, x1 = 0.6021	–	848.24	1277.9
[1], 298.15 K, x1 = 0.6945	–	852.74	–
[1], 298.15 K, x1 = 0.696	–	–	1279.6
[1], 298.15 K, x1 = 0.7994	–	857.65	–
[1], 298.15 K, x1 = 0.8066	–	–	1283
[1], 298.15 K, x1 = 0.8952	–	–	1286.9
[1], 298.15 K, x1 = 0.8997	–	862.25	–
[1], 298.15 K, x1 = 0.9465	–	864.37	–
[1], 298.15 K, x1 = 0.9528	–	–	1291
[1], 313.15 K, x1 = 0.1007	–	807.27	–
[1], 313.15 K, x1 = 0.1023	–	–	1223.7
[1], 313.15 K, x1 = 0.2007	–	–	1221.7
[1], 313.15 K, x1 = 0.2048	–	814.01	–
[1], 313.15 K, x1 = 0.3027	–	819.95	–
[1], 313.15 K, x1 = 0.3049	–	–	1220.9
[1], 313.15 K, x1 = 0.4019	–	825.6	1220.4
[1], 313.15 K, x1 = 0.5024	–	830.92	1220.6
[1], 313.15 K, x1 = 0.5976	–	835.75	1221.2
[1], 313.15 K, x1 = 0.6977	–	840.54	1222.1
[1], 313.15 K, x1 = 0.7991	–	845.26	1224.3
[1], 313.15 K, x1 = 0.9066	–	850.18	1228.6
[1], 313.15 K, x1 = 0.9468	–	852.1	1231
[2], 283.15 K, x1 = 0.049	0.028	–	–
[2], 283.15 K, x1 = 0.096	0.065	–	–
[2], 283.15 K, x1 = 0.192	0.136	–	–
[2], 283.15 K, x1 = 0.286	0.209	–	–
[2], 283.15 K, x1 = 0.388	0.27	–	–
[2], 283.15 K, x1 = 0.488	0.315	–	–
[2], 283.15 K, x1 = 0.588	0.339	–	–
[2], 283.15 K, x1 = 0.69	0.345	–	–
[2], 283.15 K, x1 = 0.791	0.322	–	–
[2], 283.15 K, x1 = 0.892	0.253	–	–
[2], 283.15 K, x1 = 0.95	0.2	–	–
[2], 283.15 K, x1 = 0.97	0.15	–	–
[2], 283.15 K, x1 = 0.99	0.095	–	–
[2], 298.15 K, x1 = 0.049	0.074	–	–
[2], 298.15 K, x1 = 0.096	0.155	–	–
[2], 298.15 K, x1 = 0.192	0.314	–	–
[2], 298.15 K, x1 = 0.286	0.459	–	–
[2], 298.15 K, x1 = 0.388	0.585	–	–
[2], 298.15 K, x1 = 0.488	0.671	–	–
[2], 298.15 K, x1 = 0.588	0.72	–	–
[2], 298.15 K, x1 = 0.69	0.726	–	–
[2], 298.15 K, x1 = 0.791	0.673	–	–
[2], 298.15 K, x1 = 0.892	0.528	–	–
[2], 298.15 K, x1 = 0.95	0.385	–	–
[2], 298.15 K, x1 = 0.97	0.306	–	–
[2], 298.15 K, x1 = 0.99	0.246	–	–
[2], 313.15 K, x1 = 0.049	0.107	–	–
[2], 313.15 K, x1 = 0.096	0.224	–	–
[2], 313.15 K, x1 = 0.192	0.443	–	–
[2], 313.15 K, x1 = 0.286	0.647	–	–
[2], 313.15 K, x1 = 0.388	0.812	–	–
[2], 313.15 K, x1 = 0.488	0.926	–	–
[2], 313.15 K, x1 = 0.588	0.989	–	–
[2], 313.15 K, x1 = 0.69	0.994	–	–
[2], 313.15 K, x1 = 0.791	0.929	–	–
[2], 313.15 K, x1 = 0.892	0.762	–	–
[2], 313.15 K, x1 = 0.95	0.536	–	–
[2], 313.15 K, x1 = 0.97	0.399	–	–
[2], 313.15 K, x1 = 0.99	0.137	–	–
